Data: US10781204B2, “TYK2 inhibitors and uses thereof” (Nimbus Lakshmi, Inc., priority 2015, dated 2020)

Key:
TYK2 = TYK2 (Homo sapiens (Human), UniProt P29597); assay: Tyk2 radioactive kinase assay; assay type: biochemical; conditions: ATP 10 μM
Summary of the method: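 Recombinant human TYK2 (Invitrogen) was mixed with 20 μM peptide substrate in a buffer of 20 mM Hepes pH 7.5, 10 mM MgCl2, 1 mM EGTA, 0.02% Brij35, 0.02 mg/mL BSA, 0.1 mM […], 2 mM DTT and 1% DMSO, and compounds in DMSO were added. Adding ^33P-ATP (10 μM ATP) started the reaction, which ran 120 min at room temperature. Mixtures were then spotted onto P81 ion-exchange paper, washed thoroughly in 0.75% phosphoric acid, and counted for radioactivity.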

[1] = tested on: JAK2-pSTAT5 (GM-CSF induced pSTAT5); assay: GM-CSF induced pSTAT5 in human PBMC; assay type: cell-based; conditions: 20 min, 5 ng/mL GM-CSF
Summary of the method: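 Thawed human PBMC, 200,000 per well in serum-containing medium, were preincubated 1 hr at 37 C with compound in 0.1% DMSO. GM-CSF at 5 ng/mL final was added for 20 minutes, then pSTAT5 and total STAT5 in lysates were measured by MSD immunoassay.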

JAK2 = JAK2 (Homo sapiens (Human), UniProt O60674); assay: JAK2 radioactive kinase assay; assay type: biochemical; conditions: ATP 10 μM
Chain of JAK2 (O60674 whole entry): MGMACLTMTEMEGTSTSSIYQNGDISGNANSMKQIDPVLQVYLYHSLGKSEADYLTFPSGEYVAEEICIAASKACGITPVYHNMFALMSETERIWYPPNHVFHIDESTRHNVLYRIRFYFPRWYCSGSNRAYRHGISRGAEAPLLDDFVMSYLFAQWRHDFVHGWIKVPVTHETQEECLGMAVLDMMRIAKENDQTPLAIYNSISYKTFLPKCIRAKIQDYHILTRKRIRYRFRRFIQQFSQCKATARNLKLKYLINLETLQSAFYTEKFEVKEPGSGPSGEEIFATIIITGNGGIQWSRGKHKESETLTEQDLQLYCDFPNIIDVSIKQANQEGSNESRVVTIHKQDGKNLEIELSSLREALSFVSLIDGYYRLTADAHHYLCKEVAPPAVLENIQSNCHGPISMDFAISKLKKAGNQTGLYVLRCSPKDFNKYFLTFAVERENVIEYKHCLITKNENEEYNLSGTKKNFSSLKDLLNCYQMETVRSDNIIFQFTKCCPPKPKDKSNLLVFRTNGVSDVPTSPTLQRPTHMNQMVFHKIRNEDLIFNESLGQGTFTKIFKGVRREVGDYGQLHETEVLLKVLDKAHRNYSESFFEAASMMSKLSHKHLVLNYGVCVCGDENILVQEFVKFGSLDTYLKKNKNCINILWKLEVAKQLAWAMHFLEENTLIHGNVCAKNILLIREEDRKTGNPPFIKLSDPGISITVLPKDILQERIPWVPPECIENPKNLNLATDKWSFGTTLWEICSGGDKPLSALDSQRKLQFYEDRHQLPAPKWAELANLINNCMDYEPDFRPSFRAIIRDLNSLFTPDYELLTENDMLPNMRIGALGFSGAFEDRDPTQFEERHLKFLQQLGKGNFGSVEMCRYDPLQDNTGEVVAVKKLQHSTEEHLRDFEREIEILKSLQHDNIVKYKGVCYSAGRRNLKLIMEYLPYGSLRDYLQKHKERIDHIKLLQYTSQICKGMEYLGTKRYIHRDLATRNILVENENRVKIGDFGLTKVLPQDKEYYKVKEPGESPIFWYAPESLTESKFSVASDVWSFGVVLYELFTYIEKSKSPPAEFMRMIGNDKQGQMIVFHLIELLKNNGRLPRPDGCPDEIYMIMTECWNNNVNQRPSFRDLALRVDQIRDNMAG
Summary of the method: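 Radiometric assay in Hepes pH 7.5, MgCl2, EGTA, Brij35, BSA, DTT, 1% DMSO, with 10 μM [33P]ATP, 120 min at room temp; P81 paper capture and counting. […]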

[2] = tested on: Tyk2-pSTAT4 (IL-12 induced pSTAT4); assay: IL-12 induced pSTAT4 in human PBMC; assay type: cell-based; conditions: 0.5 h, 1.7 ng/mL IL-12, 30 minutes
Summary of the method: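 pSTAT4 and total STAT4 quantified by MSD in cell lysates after 30 minutes of 1.7 ng/mL IL-12 stimulation. Beforehand, compound (0.1% DMSO final) sat 1 hr at 37 C on 200,000 thawed buffy-coat PBMC per well in serum-containing medium.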

Chain of TYK2 (P29597 whole entry): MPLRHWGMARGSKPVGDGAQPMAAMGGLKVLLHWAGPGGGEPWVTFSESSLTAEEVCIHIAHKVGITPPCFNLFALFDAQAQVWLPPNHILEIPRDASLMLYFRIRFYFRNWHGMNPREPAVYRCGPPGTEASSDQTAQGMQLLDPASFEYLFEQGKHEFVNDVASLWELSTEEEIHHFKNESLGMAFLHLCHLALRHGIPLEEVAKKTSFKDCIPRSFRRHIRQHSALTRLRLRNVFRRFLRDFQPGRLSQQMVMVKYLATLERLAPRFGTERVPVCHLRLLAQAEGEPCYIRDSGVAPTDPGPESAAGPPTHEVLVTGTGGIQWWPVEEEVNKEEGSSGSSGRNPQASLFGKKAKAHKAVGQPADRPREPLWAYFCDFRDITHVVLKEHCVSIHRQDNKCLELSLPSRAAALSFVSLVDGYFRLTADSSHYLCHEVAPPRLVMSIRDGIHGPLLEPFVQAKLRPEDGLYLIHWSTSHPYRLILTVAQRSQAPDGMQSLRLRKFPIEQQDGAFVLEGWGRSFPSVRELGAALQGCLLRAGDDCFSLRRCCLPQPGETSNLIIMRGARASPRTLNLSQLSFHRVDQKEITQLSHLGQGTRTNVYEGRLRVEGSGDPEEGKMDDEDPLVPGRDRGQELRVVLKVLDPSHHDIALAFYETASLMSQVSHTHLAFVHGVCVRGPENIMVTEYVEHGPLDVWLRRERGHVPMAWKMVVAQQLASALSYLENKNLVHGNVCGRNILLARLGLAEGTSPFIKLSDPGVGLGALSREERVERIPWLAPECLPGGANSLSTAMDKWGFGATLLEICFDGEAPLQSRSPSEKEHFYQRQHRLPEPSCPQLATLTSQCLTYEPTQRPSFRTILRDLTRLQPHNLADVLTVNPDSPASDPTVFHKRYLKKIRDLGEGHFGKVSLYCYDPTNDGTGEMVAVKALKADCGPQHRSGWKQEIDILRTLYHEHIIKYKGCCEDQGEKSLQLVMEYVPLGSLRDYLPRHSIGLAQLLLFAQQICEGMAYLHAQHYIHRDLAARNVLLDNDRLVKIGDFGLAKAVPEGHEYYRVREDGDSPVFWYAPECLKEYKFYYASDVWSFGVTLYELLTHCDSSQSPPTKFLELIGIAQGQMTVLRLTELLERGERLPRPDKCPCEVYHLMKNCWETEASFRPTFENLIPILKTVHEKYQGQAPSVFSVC

Row | Structure (SMILES) | Ki (TYK2) | EC50 ([1]; Homo sapiens, PBMC) | Ki (JAK2) | EC50 ([2]; Homo sapiens, PBMC) | EC50 [1] | EC50 [2]
1 | [2H]C1([2H])C[C@H](O)C([2H])([2H])N1c1ccn(-c2cc(-c3c(F)cccc3C#N)nc3c2C(=O)NC3)n1 [I-142, (S)-3-fluoro-2-(4-(3-(3-hydroxypyrrolidin-1-yl-2,2,5,5-d4)-1H-pyrazol-1-yl)-5-oxo-6,7-dihydro-5H-pyrrolo[3,4-b]pyridin-2-yl)benzonitrile] | 0.009 to 0.1 nM | 100 to 2000 nM | 0.1 to 10 nM | 30 to 100 nM | – | –
2 | N#Cc1cccc(F)c1-c1cc(-n2ccc(N3CCC[C@@](O)(C(F)(F)F)C3)n2)c2c(n1)CNC2=O [I-89, (S)-3-fluoro-2-(4-(3-(3-hydroxy-3-(trifluoromethyl)piperidin-1-yl)-1H-pyrazol-1-yl)-5-oxo-6,7-dihydro-5H-pyrrolo[3,4-b]pyridin-2-yl)benzonitrile] | 0.1 to 10 nM | > 2000 nM | 10 to 100 nM | 100 to 2000 nM | – | –
3 | N#Cc1cccc(F)c1-c1cc(-n2ccc([C@@H]3CCCO3)n2)c2c(n1)CNC2=O [I-104, (S)-3-fluoro-2-(5-oxo-4-(3-(tetrahydrofuran-2-yl)-1H-pyrazol-1-yl)-6,7-dihydro-5H-pyrrolo[3,4-b]pyridin-2-yl)benzonitrile] | 0.1 to 10 nM | 100 to 2000 nM | 100 to 1000 nM | 100 to 2000 nM | – | –
4 | N#Cc1cccc(F)c1-c1cc(-n2ccc(NCCN3CCOCC3)n2)c2c(n1)CNC2=O [I-63, 3-fluoro-2-(4-(3-((2-morpholinoethyl)amino)-1H-pyrazol-1-yl)-5-oxo-6,7-dihydro-5H-pyrrolo[3,4-b]pyridin-2-yl)benzonitrile] | 0.1 to 10 nM | – | 10 to 100 nM | – | 100 to 2000 nM | 100 to 2000 nM
5 | C[C@@]1(O)CCN(c2ccn(-c3cc(-c4c(F)cccc4C#N)nc4c3C(=O)NC4)n2)C1 [I-92, (R)-3-fluoro-2-(4-(3-(3-hydroxy-3-methylpyrrolidin-1-yl)-1H-pyrazol-1-yl)-5-oxo-6,7-dihydro-5H-pyrrolo[3,4-b]pyridin-2-yl)benzonitrile] | 0.1 to 10 nM | 100 to 2000 nM | 10 to 100 nM | 30 to 100 nM | – | –
6 | N#Cc1cccc(F)c1-c1cc(-n2ccc(N3CCCC(C(N)=O)C3)n2)c2c(n1)CNC2=O (centres unmarked) [I-122, 1-(1-(2-(2-cyano-6-fluorophenyl)-5-oxo-6,7-dihydro-5H-pyrrolo[3,4-b]pyridin-4-yl)-1H-pyrazol-3-yl)piperidine-3-carboxamide] | 0.1 to 10 nM | 100 to 2000 nM | 10 to 100 nM | 100 to 2000 nM | – | –
7 | N#Cc1cccc(F)c1-c1cc(-n2ccc(N3CCCC(N)(C(F)(F)F)C3)n2)c2c(n1)CNC2=O (centres unmarked) [I-84, 2-(4-(3-(3-amino-3-(trifluoromethyl)piperidin-1-yl)-1H-pyrazol-1-yl)-5-oxo-6,7-dihydro-5H-pyrrolo[3,4-b]pyridin-2-yl)-3-fluorobenzonitrile] | 0.009 to 0.1 nM | 100 to 2000 nM | 0.1 to 10 nM | 30 to 100 nM | – | –
8 | CC1(O)CCCN(c2ccn(-c3cc(-c4c(F)cccc4C#N)nc4c3C(=O)NC4)n2)C1 (centres unmarked) [I-62, 3-fluoro-2-(4-(3-(3-hydroxy-3-methylpiperidin-1-yl)-1H-pyrazol-1-yl)-5-oxo-6,7-dihydro-5H-pyrrolo[3,4-b]pyridin-2-yl)benzonitrile] | 0.009 to 0.1 nM | 100 to 2000 nM | 10 to 100 nM | 100 to 2000 nM | – | –
9 | N#Cc1cccc(F)c1-c1cc(-n2cc3c(n2)CNC3)c2c(n1)CNC2=O [I-124, 2-(4-(5,6-dihydropyrrolo[3,4-c]pyrazol-2 (4H)-yl)-5-oxo-6,7-dihydro-5H-pyrrolo[3,4-b]pyridin-2-yl)-3-fluorobenzonitrile] | 10 to 100 nM | > 2000 nM | 100 to 1000 nM | > 2000 nM | – | –
10 | N#Cc1cccc(F)c1-c1cc(-n2ccc(N3CCCOCC3)n2)c2c(n1)CNC2=O [I-83, 2-(4-(3-(1,4-oxazepan-4-yl)-1H-pyrazol-1-yl)-5-oxo-6,7-dihydro-5H-pyrrolo[3,4-b]pyridin-2-yl)-3-fluorobenzonitrile] | 0.1 to 10 nM | > 2000 nM | 10 to 100 nM | 100 to 2000 nM | – | –

More lines, main results first:

Row | Ki (TYK2) | EC50 ([1]; Homo sapiens, PBMC) | Ki (JAK2) | EC50 ([2]; Homo sapiens, PBMC) | Structure (SMILES) | EC50 [1] | EC50 [2]
11 | 10 to 100 nM | > 2000 nM | ≥ 1000 nM | > 2000 nM | N#Cc1cccc(F)c1-c1cc(-n2ccc(N3CC[C@H](O)C3=O)n2)c2c(n1)CNC2=O [I-148, (S)-3-fluoro-2-(4-(3-(3-hydroxy-2-oxopyrrolidin-1-yl)-1H-pyrazol-1-yl)-5-oxo-6,7-dihydro-5H-pyrrolo[3,4-b]pyridin-2-yl)benzonitrile] | – | –
12 | 0.1 to 10 nM | 100 to 2000 nM | 10 to 100 nM | 100 to 2000 nM | N#Cc1cccc(F)c1-c1cc(-n2ccc(N3CC[C@@H](O)[C@@H](N4CCOCC4)C3)n2)c2c(n1)CNC2=O [I-218, 3-fluoro-2-(4-(3-((3S,4R)-4-hydroxy-3-morpholinopiperidin-1-yl)-1H-pyrazol-1-yl)-5-oxo-6,7-dihydro-5H-pyrrolo[3,4-b]pyridin-2-yl)benzonitrile] | – | –
13 | 0.1 to 10 nM | > 2000 nM | 10 to 100 nM | 100 to 2000 nM | N#Cc1cccc(F)c1-c1cc(-n2ccc(N3CC[C@](O)(C(=O)N4CCCC4)C3)n2)c2c(n1)CNC2=O [I-198, (R)-3-fluoro-2-(4-(3-(3-hydroxy-3-(pyrrolidine-1-carbonyl)-pyrrolidin-1-yl)-1H-pyrazol-1-yl)-5-oxo-6,7-dihydro-5H-pyrrolo[3,4-b]pyridin-2-yl)benzonitrile] | – | –
14 | 0.1 to 10 nM | 100 to 2000 nM | 0.1 to 10 nM | 30 to 100 nM | [2H]C1([2H])C[C@](O)(C([2H])([2H])[2H])C([2H])([2H])N1c1ccn(-c2cc(-c3c(F)cccc3C#N)nc3c2C(=O)NC3)n1 [I-184, (R)-3-fluoro-2-(4-(3-(3-hydroxy-3-(methyl-d3)pyrrolidin-1-yl-2,2,5,5-d4)-1H-pyrazol-1-yl)-5-oxo-6,7-dihydro-5H-pyrrolo[3,4-b]pyridin-2-yl)benzonitrile] | – | –
15 | 0.1 to 10 nM | 100 to 2000 nM | 10 to 100 nM | 30 to 100 nM | [2H]C1([2H])N(c2ccn(-c3cc(-c4c(F)cccc4C#N)nc4c3C(=O)NC4)n2)C([2H])([2H])C([2H])([2H])C([2H])(O)C1([2H])[2H] [I-203, 3-fluoro-2-(4-(3-(4-hydroxypiperidin-1-yl-2,2,3,3,4,5,5,6,6-d9)-1H-pyrazol-1-yl)-5-oxo-6,7-dihydro-5H-pyrrolo[3,4-b]pyridin-2-yl)benzonitrile] | – | –
16 | 0.1 to 10 nM | 100 to 2000 nM | 0.1 to 10 nM | 30 to 100 nM | [2H]C([2H])([2H])C1(O)C([2H])([2H])N(c2ccn(-c3cc(-c4c(F)cccc4C#N)nc4c3C(=O)NC4)n2)C([2H])([2H])C1([2H])[2H] (centres unmarked) [I-196, 3-fluoro-2-(4-(3-(3-hydroxy-3-(methyl-d3)pyrrolidin-1-yl-2,2,4,4,5,5-d6)-1H-pyrazol-1-yl)-5-oxo-6,7-dihydro-5H-pyrrolo[3,4-b]pyridin-2-yl)benzonitrile] | – | –
17 | 0.1 to 10 nM | 100 to 2000 nM | 10 to 100 nM | 30 to 100 nM | CO[C@H]1CN(c2ccn(-c3cc(-c4c(F)cccc4C#N)nc4c3C(=O)NC4)n2)CC[C@@H]1O [I-202, 3-fluoro-2-(4-(3-((3S,4S)-4-hydroxy-3-methoxypiperidin-1-yl)-1H-pyrazol-1-yl)-5-oxo-6,7-dihydro-5H-pyrrolo[3,4-b]pyridin-2-yl)benzonitrile] | – | –
